Where two headings read alike, the source gives them in different places.
Tests used:
MDA-MB-436 cells = test: MDA-MB-436 cell activity test (CellTiter-Glo, 7 days); assay type: cell-based; details: for IC50: 7 days incubation; for inhibition at 10 µM: read-out: Max inh. % 10 μM
Description: Breast tumor cells MDA-MB-436 were purchased from ATCC, the culture medium was Leibovitz's L-15+10% FBS, and the cells were cultured in a CO2-free incubator at 37° C. On day 1, the cells in the exponential growth phase were collected, and the cell suspension was adjusted to 4000 cells/135 μL with the culture medium. 135 μL of the cell suspension was added to each well of a 96-well cell culture plate and incubated overnight. On day 2, compounds at different concentrations were added, and the plate was placed in the incubator and incubated for 7 days. After the incubation was completed, according to operation instructions for a CellTiter-Glo kit (Promega, G7573), 75 μL of CTG solution, which was already pre-melted and equilibrated to room temperature, was added to each well, and the mixture was uniformly mixed for 2 min using a microplate shaker. The plate was placed at room temperature for 10 min, and then […] were measured using an Envision2104 plate reader (PerkinElmer). The inhibition rate was calculated using formula (1), where RLUcompound was the readout of the drug treated group, RLUcontrol was the average value of the vehicle control group, and RLUblank was the average value of the cell-free well. The IC50 value was calculated using GraphPad Prism software

[1] = Pharmacokinetic test in mice; assay type: in vivo, Balb/c mice; details: for pharmacokinetic characteristics in mice: conclusion in words; for AUC(0-t) / clearance / Vd / bioavailability / Kp at 24 h: male, Balb/c, mouse, mice; for AUC(0-t) / clearance / Vd / bioavailability: plasma; for Vd: read-out: Vdss; for Kp at 24 h: brain/plasma, 24 h after administration, read-out: Brain/Plasma Ratio (24 h)
Description: 4.1 Experimental animal: male Balb/c mice, 20-25 g, 12 mice/compound, purchased from Chengdu Ddossy Experimental Animals Co., Ltd.
4.2 Experimental design: on the day of the test, 60 Balb/c mice were randomly grouped according to their body weights. The animals were fasted with water available for 12 to 14 h one day before the administration and were fed 4 h after the administration.
(§1) Before and after the administration, 0.06 mL ofblood was taken from the orbit of the animals under isoflurane anesthesia and placed in an EDTAK2 centrifuge tube. The blood was centrifuged at 5000 rpm and 4° C. for 10 min to collect plasma. The blood collection time points for the intravenous administration group and intragastric administration group were 0, 5 min, 15 min, 30 min, 1 h, 2 h, 4 h, 6 h, 8 h, and 24 h. The brain tissues were collected at 30 min, 2 h and 24 h after administration of compounds 12, 15 and 18, respectively. The brain tissues were collected 24 hours after administration of compounds 2 and 5, rinsed with cold physiological saline to remove the residual blood on the surface, drained out and then homogenized. Before analysis and detection, all samples were stored at −80° C. The samples were analyzed quantitatively by LC-MS/MS.

[2] = Pharmacokinetic test in rats; assay type: in vivo, SD rats; details: for pharmacokinetic characteristics in rats: conclusion in words; for Kp at 24 h / AUC(0-t) / clearance / Vd / bioavailability: male, SD, rat, rats; for Kp at 24 h: brain/plasma, intravenous, 2.5 mg/kg, 24 h after administration, read-out: Brain/Plasma Ratio (24 h); for AUC(0-t) / clearance / Vd / bioavailability: plasma; for Vd: read-out: Vdss
Description: 3.1 Experimental animal: male SD rats, about 220 g, 6-8 weeks old, 6 rats/compound, purchased from Chengdu Ddossy Experimental Animals Co., Ltd.
3.2 Experimental design: on the day of the experiment, 30 SD rats were randomly grouped according to their body weights. The animals were fasted with water available for 12 to 14 h one day before the administration and were fed 4 h after the administration.
as §1, with “administration, 0.15 ml of blood” for “administration, 0.06 mL ofblood”, “8 h” for “8 h,”, “collected” for “collected at 30 min, 2 h and 24 h after administration of compounds 12, 15 and 18, respectively. The brain tissues were collected”, “after administration,” for “after administration of compounds 2 and 5,”

PARP-1 enzyme = PARP-1 enzyme (Homo sapiens (Human), UniProt P09874); test: PARP-1 enzyme activity test (chemical fluorescence detection kit, BPS Bioscience); assay type: biochemical
Description: PARP-1 chemical fluorescence detection kit was purchased from BPS Bioscience. The histone solution in the kit was diluted 5× with 1×PBS, and 25 μL of the diluted histone solution was added to a microwell plate and incubated overnight at 4° C. After the incubation, the plate was washed three times with PBST (0.05% Tween-20). 100 μL of the blocking solution was added to the microwell plate and incubated at 25° C. for 90 minutes. After the incubation was completed, the plate was washed three times with PBST. 2.5 μL of compounds at different concentrations diluted in test buffer and 12.5 μL of substrate mixed solution (1.25 μL 10×PARP test buffer; 1.25 μL 10×PARP test mixed solution; 2.5 μL Activated DNA, 7.5 μL double-distilled water) were added to the microwell plate. The PARP-1 enzyme was diluted to 2 ng/μL, […] was added to the microwell plate, and the reaction system was incubated at 25° C. for 60 minutes.
After the incubation was completed, the plate was washed three times with PBST. Streptavidin-HRP was diluted 50× with a blocking solution, and 25 μL of the diluent was added to the microwell plate and incubated at 25° C. for 30 minutes. After the incubation, the plate was washed three times with PBST. ELISA ECL substrate A and substrate B were uniformly mixed at a ratio of 1:1 (v/v), 50 μL of the mixture was added to the microwell plate, and the chemiluminescence value was read.
The inhibition rate was calculated according to formula 1, where RLUsample was the readout of the compound well, RLUmax was the readout of the solvent control well, and RLUmin was the readout of the control well without the PARP-1 enzyme. Curve fitting was performed by four parameters (log(inhibitor) vs. response—Variable slope) using GraphPad Prism software, and the ICso value was calculated.
Inhibition %=(1−(RLUsample−RLUmin)/(RLUmax−RLUmin))×100% (formula 1)

[3] = Pharmacokinetic test in monkeys; assay type: in vivo, cynomolgus monkeys
Description: 6.1 Experimental animal: male cynomolgus monkeys, 3-5 kg, 3-6 years old, 4 monkeys/compound, purchased from Suzhou Xishan Biotechnology Inc.
6.2 Test method: On the day of the experiment, 8 monkeys were randomly grouped according to their body weights. The animals were fasted with water available for 14 to 18 h one day before the administration, and were fed 4 h after the administration.
Before and after the administration, 1.0 mL of blood was taken from the limb veins and placed in an EDTAK2 centrifuge tube. The blood was centrifuged at 5000 rpm and 4° C. for 10 min to collect plasma. The blood collection time points for the intravenous administration group were 0, 5 min, 15 min, 30 min, 1 h, 2 h, 4 h, 6 h, 8 h, 10 h, 12 h, 24 h and 48 h. Before analysis and detection, all samples were stored at −80° C. The samples were analyzed quantitatively by LC-MS/MS.

[4] = Homo sapiens, MDA-MB-436, 168 h
[5] = Homo sapiens, 10 μM, MDA-MB-436 cells
[6] = grades, read-out: PARP-1 enzyme activity IC50
[7] = male, cynomolgus monkey, iv, monkeys, i.v. (1 mg/kg), plasma

Chain of PARP-1 enzyme (P09874 whole entry): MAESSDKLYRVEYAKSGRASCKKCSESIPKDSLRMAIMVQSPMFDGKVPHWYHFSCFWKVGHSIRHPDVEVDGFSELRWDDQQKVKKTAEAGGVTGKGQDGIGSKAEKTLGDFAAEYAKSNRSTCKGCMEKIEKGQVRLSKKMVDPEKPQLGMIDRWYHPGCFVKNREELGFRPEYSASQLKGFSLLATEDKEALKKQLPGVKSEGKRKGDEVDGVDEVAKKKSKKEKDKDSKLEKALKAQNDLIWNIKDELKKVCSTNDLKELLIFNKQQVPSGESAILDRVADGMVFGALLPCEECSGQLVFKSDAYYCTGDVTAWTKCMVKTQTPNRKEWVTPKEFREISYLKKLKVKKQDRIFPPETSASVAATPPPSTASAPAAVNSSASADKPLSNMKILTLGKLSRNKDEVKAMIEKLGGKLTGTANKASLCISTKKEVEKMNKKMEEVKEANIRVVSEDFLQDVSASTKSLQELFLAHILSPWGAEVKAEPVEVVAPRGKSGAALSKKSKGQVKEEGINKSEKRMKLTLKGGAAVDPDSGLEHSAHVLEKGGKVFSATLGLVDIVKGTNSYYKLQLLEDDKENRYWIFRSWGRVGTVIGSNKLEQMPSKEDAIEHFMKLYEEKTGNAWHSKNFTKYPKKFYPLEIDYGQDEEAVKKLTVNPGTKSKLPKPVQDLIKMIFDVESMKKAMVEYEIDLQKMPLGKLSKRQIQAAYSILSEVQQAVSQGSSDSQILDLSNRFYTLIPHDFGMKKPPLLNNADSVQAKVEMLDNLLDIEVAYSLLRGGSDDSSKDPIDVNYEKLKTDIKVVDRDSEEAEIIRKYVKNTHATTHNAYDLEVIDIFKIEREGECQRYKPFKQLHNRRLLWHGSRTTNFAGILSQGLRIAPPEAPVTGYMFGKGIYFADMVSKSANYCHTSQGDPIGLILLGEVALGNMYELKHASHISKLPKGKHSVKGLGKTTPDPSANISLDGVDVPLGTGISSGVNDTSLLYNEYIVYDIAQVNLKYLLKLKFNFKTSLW

| Compound | IC50 (MDA-MB-436 cells; [4]) [nM] | inhibition at 10 µM (MDA-MB-436 cells; [5]) [%] | pharmacokinetic characteristics in mice [1] | AUC(0-t) ([1]; iv, i.v. 2.5 mg/kg) [ng·h/mL] | clearance ([1]; iv, i.v. 2.5 mg/kg) [mL/min/kg] | Vd ([1]; iv, i.v. 2.5 mg/kg) [L/kg] | bioavailability ([1]; po, i.g. 10 mg/kg) [%] | AUC(0-t) ([1]; po, i.g. 10 mg/kg) [ng·h/mL] | pharmacokinetic characteristics in rats [2] | AUC(0-t) ([2]; iv, i.v. 2.5 mg/kg) [ng·h/mL] | clearance ([2]; iv, i.v. 2.5 mg/kg) [mL/min/kg] | Vd ([2]; iv, i.v. 2.5 mg/kg) [L/kg] | bioavailability ([2]; po, i.g. 10 mg/kg) [%] | AUC(0-t) ([2]; po, i.g. 10 mg/kg) [ng·h/mL] | IC50 (PARP-1 enzyme; [6]) [nM] | other results |
| --- | --- | --- | --- | --- | --- | --- | --- | --- | --- | --- | --- | --- | --- | --- | --- | --- |
| Cn1cc(NC(=O)c2ccc(N3CCN(Cc4ccc5nc(C(F)F)c(=O)[nH]c5c4F)CC3)c(F)n2)cn1 [Compound 15] | 6.8 | 74.2 | good pharmacokinetic characteristics | 16300 ± 1740 | 2.57 ± 0.29 | 0.342 ± 0.04 | ≥ 98 | 67200 | good pharmacokinetic characteristics | 25800 ± 2870 | 1.63 ± 0.18 | 0.192 ± 0.022 | 87.2 ± 14 | 89800 ± 14000 | – | Kp at 24 h [2]: 0.916 |
| 1-(difluoromethyl)-N-(5-(4-((2-(difluoroethyl(-5-fluoro-3-oxo-3,4-dihydroquinoxalin-6-yl)methyl)piperazin-1-yl)-6-fluoropyridin-2-yl)-1H-pyrazole-4-carboxamide [Compound 17] | – | – | – | – | – | – | – | – | – | – | – | – | – | – | < 5 | Max inh. % 10 μM (MDA-MB-436 cells; 10 μM, MDA-MB-436 cells): 72.33%; IC50 (MDA-MB-436 cells): 19.4 nM |
| Cn1cc(C(=O)Nc2ccc(N3CCN(Cc4ccc5nc(C(F)F)c(=O)[nH]c5c4F)CC3)c(F)n2)c(F)n1 [Compound 18, N-(5-(4-((2-(difluoromethyl)-5-fluoro-3-oxo-3,4-dihydroquinoxalin-6-yl)methyl)piperazin-1-yl)-6-fluoropyridin-2-yl)-3-fluoro-1-methyl-1H-pyrazole-4-carboxamide] | – | – | good pharmacokinetic characteristics | 8150 ± 811 | 5.14 ± 0.53 | 0.582 ± 0.029 | ≥ 98 | 32300 | good pharmacokinetic characteristics | 22000 ± 838 | 1.9 ± 0.071 | 0.294 ± 0.011 | ≥ 98 | 87600 ± 11700 | < 5 | – |
| Cc1nc2ccc(CN3CC=C(c4ccc(C(=O)Nc5cnn(C)c5)nc4F)CC3)c(F)c2[nH]c1=O [Compound 9, 2-fluoro-1′-((5-fluoro-2-methyl-3-oxo-3,4-dihydroquinoxalin-6-yl)methyl)-N-(1-methyl-1H-pyrazol-4-yl)-1′,2′,3′,6′-tetrahydro-[3,4′-bipyridine]-6-carboxamide] | 1.5 | 84.4 | – | – | – | – | – | – | – | – | – | – | – | – | – | – |
| Cc1nc2ccc(CN3CCN(c4ccc(C(=O)N[C@H]5C[C@H]5F)nc4F)CC3)c(F)c2[nH]c1=O [Compound 5, 6-fluoro-5-(4-((5-fluoro-2-methyl-3-oxo-3,4-dihydroquinoxalin-6-yl)methyl)piperazin-1-yl)-N-((1S,2R)-2-fluorocyclopropyl)picolinamide] | 28 | 79.8 | good pharmacokinetic characteristics | 2750 ± 212 | 15.2 ± 1.1 | 2.85 ± 0.23 | ≥ 98 | 12700 ± 817 | – | – | – | – | – | – | < 5 | Kp at 24 h [1]: 0.911 |
| Cc1nc2ccc(CN3CCN(c4ccc(C(=O)Nc5cnn(C)c5)nc4F)CC3)c(F)c2[nH]c1=O [Compound 2, 6-fluoro-5-(4-((5-fluoro-2-methyl-3-oxo-3,4-dihydroquinoxalin-6-yl)methyl)piperazin-1-yl)-N-(1-methyl-1H-pyrazol-4-yl)picolinamide] | 3.5 | 86 | good pharmacokinetic characteristics | 1870 ± 154 | 21.6 ± 1.3 | 2.09 ± 0.52 | 97.4 | 7270 ± 793 | – | – | – | – | – | – | < 5 | Kp at 24 h [1]: 5.23; IC50 (PARP-1 enzyme; read-out: IC50 value on PARP-1): 0.79 nM |
| Cc1nc2ccc(CN3CCN(c4ccc(C(=O)N[C@@H]5C[C@@H]5F)nc4F)CC3)c(F)c2[nH]c1=O [Compound 4, 6-fluoro-5-(4-((5-fluoro-2-methyl-3-oxo-3,4-dihydroquinoxalin-6-yl)methyl)piperazin-1-yl)-N-((1R,2S)-2-fluorocyclopropyl)picolinamide] | 32.8 | 80.1 | – | – | – | – | – | – | good pharmacokinetic characteristics | 7390 ± 663 | 5.36 ± 0.068 | 1.13 ± 0.071 | ≥ 98 | 33400 ± 2670 | < 5 | Kp at 24 h [2]: 0.315 |
| Cn1cc(C(=O)Nc2ccc(N3CCN(Cc4ccc5nc(C(F)F)c(=O)[nH]c5c4F)CC3)c(F)n2)cn1 [Compound 14, N-(5-(4-((2-(difluoromethyl)-5-fluoro-3-oxo-3,4-dihydroquinoxalin-6-yl)methyl)piperazin-1-yl)-6-fluoropyridin-2-yl)-1-methyl-1H-pyrazole-4-carboxamide] | 24.3 | 73.2 | – | – | – | – | – | – | good pharmacokinetic characteristics | 48700 ± 4800 | 0.859 ± 0.09 | 0.148 ± 0.01 | 70.9 ± 3.4 | 138000 ± 6650 | < 5 | pharmacokinetic characteristics in monkeys ([3]; conclusion in words): good pharmacokinetic characteristics; AUC(0-t) [3, 7]: 47100 ± 6260 ng·h/mL; clearance [3, 7]: 0.348 ± 0.057 mL/min/kg; Vd ([3]; male, cynomolgus monkey, iv, monkeys, i.v. (1 mg/kg), plasma, read-out: Vdss): 0.151 ± 0.022 L/kg; bioavailability ([3]; male, cynomolgus monkey, plasma, po, monkeys, i.g. (3 mg/kg)): 56.8 ± 4.9%; AUC(0-t) ([3]; male, cynomolgus monkey, po, monkeys, i.g. (3 mg/kg), plasma): 80100 ± 6960 ng·h/mL |
